Measurements taken from publication PMC8283659 (ACS chemical neuroscience, 2020).
Like-named read-outs stand apart in the source and are kept apart here.

Experiments:
DAT [1] = molecular target: DAT (Rattus norvegicus, UniProt P23977); assay: DAT radioligand binding assay; settings: for pKi ± S.E.M. DAT [3H]WIN 35,428: mean ± S.E.M., 3 independent experiments
SERT = SERT (Rattus norvegicus, UniProt P31652); assay: SERT radioligand binding assay; settings: for pKi ± S.E.M. SERT [3H]Citalopram: rat brain membranes (stem in methods), mean ± S.E.M., 3 independent experiments
SERT, sequence (P31652 whole entry): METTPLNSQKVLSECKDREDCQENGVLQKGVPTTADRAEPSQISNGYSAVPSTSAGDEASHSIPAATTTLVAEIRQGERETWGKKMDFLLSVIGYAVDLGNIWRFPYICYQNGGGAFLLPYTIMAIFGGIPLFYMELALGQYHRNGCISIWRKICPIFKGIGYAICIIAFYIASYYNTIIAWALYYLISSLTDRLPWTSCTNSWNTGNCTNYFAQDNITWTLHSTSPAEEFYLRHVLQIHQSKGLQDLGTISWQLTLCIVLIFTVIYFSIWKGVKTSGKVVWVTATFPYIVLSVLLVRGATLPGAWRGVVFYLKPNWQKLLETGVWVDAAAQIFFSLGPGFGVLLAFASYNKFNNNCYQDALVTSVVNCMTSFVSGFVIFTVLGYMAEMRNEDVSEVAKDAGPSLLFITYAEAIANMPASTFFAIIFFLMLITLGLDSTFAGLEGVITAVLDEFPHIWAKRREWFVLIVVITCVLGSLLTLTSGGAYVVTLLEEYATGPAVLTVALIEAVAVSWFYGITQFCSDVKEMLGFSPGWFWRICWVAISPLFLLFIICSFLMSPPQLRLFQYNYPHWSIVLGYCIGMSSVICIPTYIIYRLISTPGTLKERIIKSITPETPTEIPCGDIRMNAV

DAT [2] = settings: read-out: DAT Ki; cited from earlier work
NET = NET (Rattus norvegicus, UniProt Q63380); assay: NET radioligand binding assay
NET, sequence (Q63380 1-617): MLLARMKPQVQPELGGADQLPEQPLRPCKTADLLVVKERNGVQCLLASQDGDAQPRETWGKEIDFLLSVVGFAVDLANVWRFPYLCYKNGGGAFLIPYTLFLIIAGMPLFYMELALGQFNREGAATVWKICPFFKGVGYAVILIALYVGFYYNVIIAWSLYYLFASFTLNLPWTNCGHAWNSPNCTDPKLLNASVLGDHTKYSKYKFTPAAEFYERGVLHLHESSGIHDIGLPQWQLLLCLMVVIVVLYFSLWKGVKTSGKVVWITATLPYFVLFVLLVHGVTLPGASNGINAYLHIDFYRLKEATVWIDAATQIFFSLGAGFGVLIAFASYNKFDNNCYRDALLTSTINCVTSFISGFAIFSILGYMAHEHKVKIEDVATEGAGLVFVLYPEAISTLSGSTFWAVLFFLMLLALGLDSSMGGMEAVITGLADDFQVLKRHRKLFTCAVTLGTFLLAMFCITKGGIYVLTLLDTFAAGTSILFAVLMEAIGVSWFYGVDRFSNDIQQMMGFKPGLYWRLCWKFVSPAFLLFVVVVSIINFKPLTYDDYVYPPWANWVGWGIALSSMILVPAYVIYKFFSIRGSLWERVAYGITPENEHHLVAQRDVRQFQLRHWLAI

human DAT (hDAT) = human DAT (hDAT) (Homo sapiens, UniProt Q01959); assay: [3H]dopamine uptake inhibition in CAD cells transiently expressing hDAT; format: cell-based
human DAT (hDAT), sequence (Q01959 whole entry): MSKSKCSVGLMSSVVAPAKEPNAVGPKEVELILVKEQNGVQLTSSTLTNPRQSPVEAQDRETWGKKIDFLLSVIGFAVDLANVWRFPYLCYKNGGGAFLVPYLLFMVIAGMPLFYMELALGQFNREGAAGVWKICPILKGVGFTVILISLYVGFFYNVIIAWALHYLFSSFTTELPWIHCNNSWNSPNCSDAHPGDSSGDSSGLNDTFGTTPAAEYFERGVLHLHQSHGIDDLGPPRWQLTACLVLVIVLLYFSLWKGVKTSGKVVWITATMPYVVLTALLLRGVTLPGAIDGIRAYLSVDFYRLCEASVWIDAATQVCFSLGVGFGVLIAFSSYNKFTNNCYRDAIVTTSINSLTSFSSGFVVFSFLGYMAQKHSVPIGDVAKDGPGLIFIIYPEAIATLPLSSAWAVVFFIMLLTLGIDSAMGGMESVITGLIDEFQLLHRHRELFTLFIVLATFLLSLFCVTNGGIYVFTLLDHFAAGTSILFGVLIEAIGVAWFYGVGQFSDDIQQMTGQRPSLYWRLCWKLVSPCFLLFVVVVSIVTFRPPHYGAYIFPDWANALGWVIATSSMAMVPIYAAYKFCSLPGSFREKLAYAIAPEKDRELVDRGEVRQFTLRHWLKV

EGFP-hDAT = EGFP-hDAT (Homo sapiens, UniProt Q01959); assay: TIRF microscopy of surface labeling of EGFP-hDAT-expressing CAD cells; format: cell-based; settings: 10 nM ligand, 10 min, rt; fixed cells
EGFP-hDAT, sequence (Q01959 whole entry): as above

[3] = read-out: Ki DAT [3H]WIN 35,428, rat striatum membranes, value in parentheses
[4] = IC50 DAT [3H]DA, value in parentheses
[5] = pIC50 ± S.E.M. DAT [3H]DA, 20 nM [3H]DA, 5 min, rt

DAT (Rattus norvegicus, UniProt P23977), sequence (P23977 whole entry): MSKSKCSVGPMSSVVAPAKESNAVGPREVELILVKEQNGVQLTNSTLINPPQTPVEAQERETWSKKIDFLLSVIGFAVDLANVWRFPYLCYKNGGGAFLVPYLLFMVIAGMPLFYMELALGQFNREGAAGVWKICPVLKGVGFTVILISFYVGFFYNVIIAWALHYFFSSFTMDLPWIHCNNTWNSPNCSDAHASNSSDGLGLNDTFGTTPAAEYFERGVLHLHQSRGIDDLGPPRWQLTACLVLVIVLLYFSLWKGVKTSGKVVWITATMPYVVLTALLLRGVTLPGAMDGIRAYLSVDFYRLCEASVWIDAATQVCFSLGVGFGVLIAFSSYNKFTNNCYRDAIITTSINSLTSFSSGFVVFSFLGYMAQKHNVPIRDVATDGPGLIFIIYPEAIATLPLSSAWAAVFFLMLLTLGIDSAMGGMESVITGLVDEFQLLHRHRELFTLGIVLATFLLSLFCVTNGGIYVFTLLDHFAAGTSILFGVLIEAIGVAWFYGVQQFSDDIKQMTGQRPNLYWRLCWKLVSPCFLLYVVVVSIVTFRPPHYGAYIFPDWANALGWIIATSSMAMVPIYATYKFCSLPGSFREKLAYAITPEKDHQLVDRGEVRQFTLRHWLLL

| Structure (SMILES) | pKi ± S.E.M. DAT [3H]WIN 35,428 (DAT [1]; rat striatum membranes) | Ki (DAT [1]; [3]) [nM] | pKi ± S.E.M. SERT [3H]Citalopram (SERT) | Ki (DAT [2]) [nM] | Ki (DAT [1]) [nM] | Ki (NET) [nM] | Ki (SERT) [nM] | IC50 (human DAT (hDAT); [4]) [nM] | IC50 (human DAT (hDAT); [5]) [nM] | surface labeling of EGFP-hDAT-expressing CAD cells, TIRF microscopy (in words) (EGFP-hDAT) | pIC50 ± S.E.M. DAT [3H]DA (human DAT (hDAT); 20 nM [3H]DA, 5 min, rt) |
| --- | --- | --- | --- | --- | --- | --- | --- | --- | --- | --- | --- |
| COC(=O)[C@H]1[C@@H](c2ccc(Cl)c(Cl)c2)C[C@@H]2CC[C@H]1N2C [Compound 1, reference compound] | 9.10 ± 0.23 | 0.8 | 7.99 ± 0.20 |  |  |  |  |  |  |  |  |
| CCN(CC)c1ccc2c(-c3ccc(S(=O)(=O)NCCCCCC(=O)NCCN4C5CCC4[C@@H](C(=O)OC)[C@@H](c4ccc(Cl)c(Cl)c4)C5)cc3S(=O)(=O)[O-])c3ccc(=[N+](CC)CC)cc-3oc2c1 (some centres unmarked) [Compound 2, reference compound] | 7.79 ± 0.09 | 16 | 7.80 ± 0.08 | 18 |  |  |  |  |  |  |  |
| COC(=O)[C@H]1[C@@H](c2ccc(Cl)c(Cl)c2)C[C@@H]2CC[C@H]1N2CCOCCOCCNC(=O)c1ccc(C(=O)[O-])c(-c2c3ccc(=[N+]4CCC4)cc-3oc3cc(N4CCC4)ccc23)c1 [Compound 3, 2-(3-(Azetidin-1-ium-1-ylidene)-6-(azetidin-1-yl)-3H-xanthen-9-yl)-4-((2-(2-(2-((1R,2S,3S,5S)-3-(3,4-dichlorophenyl)-2-(methoxycarbonyl)-8-azabicyclo[3.2.1]octan-8-yl)ethoxy)ethoxy)ethyl)carbamoyl)benzoate] |  |  |  |  | 6.03 | 225 | 41.7 | 28 | 28.2 | surface labeling was observed |  |
| COC(=O)[C@H]1[C@@H](c2ccc(Cl)c(Cl)c2)C[C@@H]2CC[C@H]1N2CCOCCOCCOCCOCCOCCNC(=O)c1ccc2c(c1)C1(OC2=O)c2ccc(N3CCC3)cc2[Si](C)(C)c2cc(N3CCC3)ccc21 [Compound 4, Methyl (1R,2S,3S,5S)-8-(1-(3,7-di(azetidin-1-yl)-5,5-dimethyl-3’-oxo-3’H,5H-spiro[dibenzo[b,e]siline-10,1’-isobenzofuran]-6’-yl)-1-oxo-5,8,11,14,17-pentaoxa-2-azanonadecan-19-yl)-3-(3,4-dichlorophenyl)-8-azabicyclo[3.2.1]octane-2-carboxylate] | 7.55 ± 0.03 | 28 | 7.37 ± 0.05 |  |  |  |  |  |  | surface labeling was observed | 6.99 ± 0.15 |
| COC(=O)[C@H]1[C@@H](c2ccc(Cl)c(Cl)c2)C[C@@H]2CC[C@H]1N2CCOCCOCCNC(=O)c1ccc2c(c1)C1(OC2=O)c2ccc(N3CCC3)cc2[Si](C)(C)c2cc(N3CCC3)ccc21 [Compound 10, Methyl (1R,2S,3S,5S)-8-(2-(2-(2-(3,7-di(azetidin-1-yl)-5,5-dimethyl-3’-oxo-3’H,5H-spiro[dibenzo[b,e]siline-10,1’-isobenzofuran]-6’-carboxamido)ethoxy)ethoxy)ethyl)-3-(3,4-dichlorophenyl)-8-azabicyclo[3.2.1]octane-2-carboxylate] |  |  |  |  | 112 | 468 | 153 | 1150 | 1150 |  |  |
| COC(=O)[C@H]1[C@@H](c2ccc(Cl)c(Cl)c2)C[C@@H]2CC[C@H]1N2CCN1CCN(CCCCNC(=O)c2ccc3c(c2)C2(OC3=O)c3ccc(N4CCC4)cc3[Si](C)(C)c3cc(N4CCC4)ccc32)CC1 [Compound 14, Methyl (1R,2S,3S,5S)-8-(2-(4-(4-(3,7-di(azetidin-1-yl)-5,5-dimethyl-3’-oxo-3’H,5H-spiro[dibenzo[b,e]siline-10,1’-isobenzofuran]-6’-carboxamido)butyl)piperazin-1-yl)ethyl)-3-(3,4-dichlorophenyl)-8-azabicyclo[3.2.1]octane-2-carboxylate] |  |  |  |  | 38 | 1200 | 38 | 160 | 158 | the labeling was very punctate |  |
